The numbers were not newly measured in US20170143622A1, “STABLE LIQUID READY-TO-USE INJECTABLE FORMULATION OF BORTEZOMIB” (DR. REDDY'S LABORATORIES LIMITED, priority 2014, published 2017), which cites them from elsewhere.

The structures appear in SMILES notation. Where two headings read alike, the source gives them in different places.

The conditions of data set [1]: ethanol composition, 40° C. and 75% relative humidity, 1 month.
The conditions of data set [2]: 25° C.
The conditions of data set [3]: polyethylene glycol (PEG).

Consider `CC(C)C[C@H](NC(=O)[C@H](Cc1ccccc1)NC(=O)c1cnccn1)B(O)O` [bortezomib, [(1R)-3-methyl-1-[[(2S)-1-oxo-3-phenyl-2[(pyrazinylcarbonyl)amino]propyl]amino]butyl]boronic acid], for which the “Bortezomib degraded to” value in data set [1] is given as 76%. The Degradation in data set [2] (ethanol: normal saline solution (2:98, pH 2.8), bortezomib 0.5 mg/ml, 1 month) is recorded as 20%; in data set [2] (polyethylene glycol (PEG) 300: Ethanol:Water (40:10:50), 24 hours) it was at most 20%; in data set [2] (propylene glycol (PG): Ethanol:Water (50:10:40), 8 months), 20%. Moreover, the “Solubility in PEG” value in data set [3] is reported as “insolubility”.
